Reference: PubChem BioAssay (NCI)
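Five compound concentrations were applied to cells in 96-well plates for 48 hours; endpoints were derived by simple linear interpolation of the resulting dose-response curve. Abbreviation: GI50, concentration required for 50% inhibition of growth. TGI marks complete inhibition of growth.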

Key:
Assay in all cases: DTP human tumour cell line panel, 48 h
SW-620 colon = tested on: SW-620 colon
SF-295 CNS = tested on: SF-295 CNS
EKVX NSCLC = tested on: EKVX NSCLC
KM12 colon = tested on: KM12 colon
NCI-H460 lung = tested on: NCI-H460 lung
U251 CNS = tested on: U251 CNS
HCT-116 colon = tested on: HCT-116 colon
A498 renal = tested on: A498 renal
UACC-62 melanoma = tested on: UACC-62 melanoma
SK-MEL-28 melanoma = tested on: SK-MEL-28 melanoma
NCI-H23 lung = tested on: NCI-H23 lung
MDA-MB-435 = tested on: MDA-MB-435
SK-OV-3 ovarian = tested on: SK-OV-3 ovarian
MOLT-4 leukemia = tested on: MOLT-4 leukemia
HL-60(TB) leukemia = tested on: HL-60(TB) leukemia
HS 578T breast = tested on: HS 578T breast
SR leukemia = tested on: SR leukemia
HOP-62 NSCLC = tested on: HOP-62 NSCLC
SF-539 CNS = tested on: SF-539 CNS
SNB-19 CNS = tested on: SNB-19 CNS
NCI-H226 lung = tested on: NCI-H226 lung
DU-145 prostate = tested on: DU-145 prostate
OVCAR-4 ovarian = tested on: OVCAR-4 ovarian
BT-549 breast = tested on: BT-549 breast
RXF 393 renal = tested on: RXF 393 renal
M14 melanoma = tested on: M14 melanoma
OVCAR-5 ovarian = tested on: OVCAR-5 ovarian
T-47D breast = tested on: T-47D breast
COLO 205 colon = tested on: COLO 205 colon
UO-31 renal = tested on: UO-31 renal
OVCAR-8 ovarian = tested on: OVCAR-8 ovarian
MCF7 breast = tested on: MCF7 breast
PC-3 prostate = tested on: PC-3 prostate
CAKI-1 renal = tested on: CAKI-1 renal
HOP-92 NSCLC = tested on: HOP-92 NSCLC
NCI-H522 lung = tested on: NCI-H522 lung
HCT-15 colon = tested on: HCT-15 colon
NCI/ADR-RES ovarian = tested on: NCI/ADR-RES ovarian
SF-268 CNS = tested on: SF-268 CNS
SN12C renal = tested on: SN12C renal
HCC-2998 colon = tested on: HCC-2998 colon
TK-10 renal = tested on: TK-10 renal
SNB-75 CNS = tested on: SNB-75 CNS
MDA-MB-231 breast = tested on: MDA-MB-231 breast
786-0 renal = tested on: 786-0 renal
MALME-3M melanoma = tested on: MALME-3M melanoma
SK-MEL-5 melanoma = tested on: SK-MEL-5 melanoma
RPMI-8226 leukemia = tested on: RPMI-8226 leukemia
A549 NSCLC = tested on: A549 NSCLC
HT29 colon = tested on: HT29 colon
ACHN renal = tested on: ACHN renal
OVCAR-3 ovarian = tested on: OVCAR-3 ovarian
SK-MEL-2 melanoma = tested on: SK-MEL-2 melanoma
LOX IMVI melanoma = tested on: LOX IMVI melanoma

SMILES: CC(c1cc(Cl)ccc1O)c1cc(Cl)ccc1O
- GI50 (SW-620 colon): 3.7 µM
- TGI (SW-620 colon): 13.3 µM
- GI50 (SF-295 CNS): 2.3 µM
- TGI (SF-295 CNS): 7.83 µM
- GI50 (EKVX NSCLC): 2.98 µM
- TGI (EKVX NSCLC): 13.4 µM
- GI50 (KM12 colon): 3.22 µM
- TGI (KM12 colon): 10.2 µM
- GI50 (NCI-H460 lung): 2.26 µM
- TGI (NCI-H460 lung): 4.88 µM
- GI50 (U251 CNS): 3.93 µM
- TGI (U251 CNS): 14.5 µM
- GI50 (HCT-116 colon): 3.38 µM
- TGI (HCT-116 colon): 10.3 µM
- GI50 (A498 renal): 8.4 µM
- TGI (A498 renal): 20.8 µM
- GI50 (UACC-62 melanoma): 3.58 µM
- TGI (UACC-62 melanoma): 15 µM
- GI50 (SK-MEL-28 melanoma): 4.13 µM
- TGI (SK-MEL-28 melanoma): 17 µM
- GI50 (NCI-H23 lung): 2.83 µM
- TGI (NCI-H23 lung): 8.32 µM
- GI50 (MDA-MB-435): 2.32 µM
- TGI (MDA-MB-435): 7.25 µM
- GI50 (SK-OV-3 ovarian): 13.4 µM
- TGI (SK-OV-3 ovarian): 26.4 µM
- GI50 (MOLT-4 leukemia): 3.3 µM
- TGI (MOLT-4 leukemia): 10.3 µM
- GI50 (HL-60(TB) leukemia): 2.55 µM
- TGI (HL-60(TB) leukemia): 5.75 µM
- GI50 (HS 578T breast): 2.74 µM
- TGI (HS 578T breast): 7.19 µM
- GI50 (SR leukemia): 2.59 µM
- TGI (SR leukemia): 9.95 µM
- GI50 (HOP-62 NSCLC): 3.76 µM
- TGI (HOP-62 NSCLC): 17.5 µM
- GI50 (SF-539 CNS): 3.52 µM
- TGI (SF-539 CNS): 12.9 µM
- GI50 (SNB-19 CNS): 8.13 µM
- TGI (SNB-19 CNS): 22.4 µM
- GI50 (NCI-H226 lung): 12 µM
- TGI (NCI-H226 lung): 43.5 µM
- GI50 (DU-145 prostate): 5.2 µM
- TGI (DU-145 prostate): 16.3 µM
- GI50 (OVCAR-4 ovarian): 5.24 µM
- TGI (OVCAR-4 ovarian): 22.8 µM
- GI50 (BT-549 breast): 4.58 µM
- TGI (BT-549 breast): 16.9 µM
- GI50 (RXF 393 renal): 3.42 µM
- TGI (RXF 393 renal): 9.7 µM
- GI50 (M14 melanoma): 2.97 µM
- TGI (M14 melanoma): 9.82 µM
- GI50 (OVCAR-5 ovarian): 11.1 µM
- TGI (OVCAR-5 ovarian): 26.7 µM
- GI50 (T-47D breast): 3.85 µM
- TGI (T-47D breast): 18.7 µM
- GI50 (COLO 205 colon): 17.6 µM
- TGI (COLO 205 colon): 33.5 µM
- GI50 (UO-31 renal): 2.3 µM
- TGI (UO-31 renal): 10.8 µM
- GI50 (OVCAR-8 ovarian): 4.04 µM
- TGI (OVCAR-8 ovarian): 19.9 µM
- GI50 (MCF7 breast): 3.19 µM
- TGI (MCF7 breast): 16.5 µM
- GI50 (PC-3 prostate): 3.73 µM
- TGI (PC-3 prostate): 15 µM
- GI50 (CAKI-1 renal): 2.61 µM
- TGI (CAKI-1 renal): 16.4 µM
- GI50 (HOP-92 NSCLC): 1.71 µM
- TGI (HOP-92 NSCLC): 5.35 µM
- GI50 (NCI-H522 lung): 2.24 µM
- TGI (NCI-H522 lung): 5.24 µM
- GI50 (HCT-15 colon): 4.54 µM
- TGI (HCT-15 colon): 16.6 µM
- GI50 (NCI/ADR-RES ovarian): 3.15 µM
- TGI (NCI/ADR-RES ovarian): 9.16 µM
- GI50 (SF-268 CNS): 4.33 µM
- TGI (SF-268 CNS): 16.9 µM
- GI50 (SN12C renal): 3.66 µM
- TGI (SN12C renal): 16.1 µM
- GI50 (HCC-2998 colon): 3.84 µM
- TGI (HCC-2998 colon): 12.8 µM
- GI50 (TK-10 renal): 11.8 µM
- TGI (TK-10 renal): 24.7 µM
- GI50 (SNB-75 CNS): 2.49 µM
- TGI (SNB-75 CNS): 11.9 µM
- GI50 (MDA-MB-231 breast): 3.88 µM
- TGI (MDA-MB-231 breast): 16.2 µM
- GI50 (786-0 renal): 15.7 µM
- TGI (786-0 renal): 36.1 µM
- GI50 (MALME-3M melanoma): 4.61 µM
- TGI (MALME-3M melanoma): 22.7 µM
- GI50 (SK-MEL-5 melanoma): 3.41 µM
- TGI (SK-MEL-5 melanoma): 10 µM
- GI50 (RPMI-8226 leukemia): 3.73 µM
- TGI (RPMI-8226 leukemia): 9.89 µM
- GI50 (A549 NSCLC): 4.15 µM
- TGI (A549 NSCLC): 18.9 µM
- GI50 (HT29 colon): 2.74 µM
- TGI (HT29 colon): 9.13 µM
- GI50 (ACHN renal): 3.99 µM
- TGI (ACHN renal): 14.1 µM
- GI50 (OVCAR-3 ovarian): 3.62 µM
- TGI (OVCAR-3 ovarian): 13 µM
- GI50 (SK-MEL-2 melanoma): 2.98 µM
- TGI (SK-MEL-2 melanoma): 7.23 µM
- GI50 (LOX IMVI melanoma): 3.97 µM
- TGI (LOX IMVI melanoma): 17.1 µM
